Measurements: paper PMC5862408, “CCR2 antagonism leads to marked reduction in proteinuria and glomerular injury in murine models of focal segmental glomerulosclerosis (FSGS)” (PLoS ONE, 2018)
Several values for one entry are separate records, joined by “and”; a condition that tells them apart may be missing. Equal values may be shown once.

Experiments:
[1] = tested on: diabetic nephropathy patients; settings: 52 weeks of treatment; cited from earlier work
patients with FSGS = tested on: patients with FSGS; parameters: method as in announced by Retrophin; settings: 8-week time point, 109 patients with FSGS, compared to irbesartan; ref announced by Retrophin; cited from earlier work
[2] = tested on: 5/6 nephrectomized 129X1/SvJ mice; test: 5/6 nephrectomy model (comparison with ET1/AT1 dual inhibitor); type: in vivo, mouse; settings: for UAER / UACR: mean ± SEM; for UACR (mg/mg) at Week 1 / UACR (mg/mg) at Week 4 / UAER (mg/day) at Week 1 / UAER (mg/day) at Week 2 / UAER (mg/day) at Week 4: individual mice; for UACR: CCX872 90 mg/kg s.c. once daily, RAAS blocker 5 mg/kg orally once daily, Sparsentan 90 mg/kg orally twice daily
Protocol: (§1) Chemotaxis, calcium mobilization, and radio-ligand binding assays were conducted as previously described. Inhibition values (IC50) were calculated using non-linear regression with a one-site competition model (GraphPad Prism, GraphPad Software, La Jolla, CA). Urinary albumin was measured by ELISA (Bethyl Labs, Montgomery, TX). Urinary and serum creatinine was measured by LC-MS/MS at ChemoCentryx. The urinary albumin excretion rate (UAER) was calculated as micrograms per 24 h. Blood urea nitrogen (BUN) was measured by Antech Diagnostics (Morrisville, NC). Serum cystatin C was measured by ELISA (R&D Systems, Minneapolis, MN). The albumin to creatinine ratio (ACR) was calculated as micrograms of albumin per milligram of creatinine.
(§2) 5/6 nephrectomy mice on the 129X1/SvJ background were obtained from Jackson Laboratories, and were received at ChemoCentryx after the surgery was performed at JAX. Under isoflurane anesthesia, two-thirds of the left kidney mass was removed at 5–6 weeks of age. Then, after 7 to 10 days, a right unilateral nephrectomy was performed. The mice were fed a standard chow and had free access to water. Three weeks after the 5/6 nephrectomy, the mice were grouped to ensure a similar starting UAER in each treatment group. CCX872 or its vehicle were dosed subcutaneously once daily formulated in 1% HPMC. The RAAS blocker Candesartan (AK Scientific, Union City, CA) and its vehicle were dosed orally once daily at 5 mg/kg formulated in water. Sparsentan, the dual-acting receptor antagonist for endothelin (A type) and angiotensin II receptors (Type 1) was synthesized at ChemoCentryx and was dosed orally twice daily at 90 mg/kg formulated in 1% HPMC. The mice were housed individually in metabolic cages for quantitative collection of urinary albumin and creatinine.
Fig 4 Relative efficacy of CCR2, RAAS, and endothelin receptor blockade in the 5/6 nephrectomy model as assessed by UACR (mg/mg). Mice underwent a 5/6 nephrectomy as described in Methods. Three weeks post-surgery the mice were randomized to the indicated groups for the study period of 4 weeks. Urine was collected for measurement of UACR at the indicated time points, as described in Methods. Error bars represent standard error of the mean. N = 10/group at week 1, and N = 6 at week 4. p values were calculated between each drug-treated group and vehicle treated animals (asterisk), or between the CCX872/RAAS blocker combination and RAAS blocker alone (octothorpe) using student’s t-test (GraphPad Prism).

[3] = tested on: Adriamycin challenged female Balb/c mice; test: Adriamycin induced nephropathy model; type: in vivo, mouse; settings: individual mice
[4] = tested on: 5/6 nephrectomized 129X1/SvJ mice; test: 5/6 nephrectomy model (CCX872, RAAS blocker, combination); type: in vivo, mouse; settings: for BUN / Serum Creatinine / Serum Cystatin C: terminal bleed; for UACR: CCX872 90 mg/kg s.c., RAAS blocker 5 mg/kg orally, once daily
Protocol: as §1
as §2, with “creatinine. […]” for “creatinine.”
Fig 3 CCX872 improves renal function as assessed by UACR, serum creatinine, BUN and cystatin C in 5/6 nephrectomized mice. Mice underwent a 5/6 nephrectomy as described in Methods. Three weeks post-surgery the mice were randomized to the groups indicated above for the study period of 4 weeks. Urine was collected for measurement of albumin and creatinine at the indicated time points, and UACR was calculated as described in Methods. Serum creatinine, BUN and Cystatin C were measured at time of terminal bleed after four weeks of treatment. Error bars represent standard error of the mean. N = 10/group, and N = 6 at week 3. p values were calculated between each drug-treated group and vehicle treated animals (asterisk), or between CCX872/RAAS blocker combination and RAAS blocker alone (octothorpe) using student’s t-test (GraphPad Prism).

[5] = tested on: Adriamycin challenged female Balb/c mice; test: Adriamycin induced nephropathy model; type: in vivo, mouse; settings: for UAER: mean ± SEM
Protocol: Chemotaxis, calcium mobilization, and radio-ligand binding assays were conducted as previously described. Inhibition values (IC50) were calculated using non-linear regression with a one-site competition model (GraphPad Prism, GraphPad Software, La Jolla, CA). Urinary albumin was measured by ELISA (Bethyl Labs, Montgomery, TX). Urinary and serum creatinine was measured by LC-MS/MS at ChemoCentryx. The urinary albumin excretion rate (UAER) was calculated as micrograms per 24 h. Blood urea nitrogen (BUN) was measured by Antech Diagnostics (Morrisville, NC). Serum cystatin C was measured by ELISA (R&D Systems, Minneapolis, MN). The albumin to creatinine ratio (ACR) was calculated as micrograms of albumin per milligram of creatinine. These experiments were performed using female Balb/c mice (Jackson Laboratories, Bar Harbor, Maine). The mice were kept on standard chow and had free access to water. At age of 10 weeks, 7.5 mg/kg Adriamycin (Selleck Chemicals, Houston, TX) or saline (control) was injected via tail vein in isoflurane-anesthetized animals (day 0). CCX872 and/or vehicle were dosed subcutaneously once daily at 90 mg/kg formulated in 1% HPMC. The RAAS blocker Candesartan (AK Scientific, Union City, CA) and its vehicle were dosed orally once daily at 5 mg/kg, formulated in water. All dosing started 2 hours prior Adriamycin challenge. The mice were housed individually in metabolic cages for quantitative collection of urinary albumin and creatinine.  Fig 2 CCX872 improves renal function as assessed by UACR, serum creatinine and BUN in adriamycin challenged mice. Mice were challenged with Adriamycin as described in Methods. Test compound treatment was begun one hour prior to the Adriamycin challenge. Urine was collected for measurement of UAER (S3 Table) and creatinine at the indicated time points, and UACR was calculated as described in Methods. Serum creatinine and BUN were measured at time of terminal bleed after two weeks of treatment. Error bars represent standard error of the mean. N = 10/group at week 1, and N = 8 at week 2. p values were calculated on each treated group to vehicle treated animals using student’s t-test (GraphPad Prism).

[6] = four-week time point, mean ± SEM
[7] = individual mice, listed as RAASi
[8] = terminal bleed, individual mice

Cc1cnc(C(=O)c2ncnc3[nH]ccc23)c(NS(=O)(=O)c2ccc(Cl)c(C(F)(F)F)c2)c1 [CCX140-B]
proteinuria [1]: decreased and sustained reduction of proteinuria

CCCCC1=NC2(CCCC2)C(=O)N1Cc1ccc(-c2ccccc2S(=O)(=O)Nc2noc(C)c2C)c(COCC)c1 [ET1/AT2 Dual Blocker, Sparsentan]
proteinuria (primary endpoint) (patients with FSGS): statistically significant reduction in proteinuria as compared to irbesartan | UAER ([2]; Week 1): 2.64 ± 0.75, p=0.036 mg/day | UAER ([2]; Week 2): 1.54 ± 2.15, p=0.01 mg/day | UAER ([2]; Week 4): 1.15 ± 1.47, p=0.001 mg/day | UACR (mg/mg) at Week 1 ([2]; listed as ET1/AT1 Dual): 1.081 mg/mg and 2.162 mg/mg and 2.864 mg/mg and 2.81 mg/mg and 3.047 mg/mg and 2.101 mg/mg and 2.214 mg/mg and 0.6904 mg/mg and 5.004 mg/mg | UACR (mg/mg) at Week 4 ([2]; listed as ET1/AT1 Dual): 2.388 mg/mg and 0.4973 mg/mg and 0.675 mg/mg and 0.2626 mg/mg and 0.5926 mg/mg and 2.095 mg/mg and 0.7726 mg/mg | UAER (mg/day) at Week 1 ([2]; listed as ET1/AT1 Dual): 0.8511 mg/day and 1.523 mg/day and 1.648 mg/day and 2.037 mg/day and 2.769 mg/day and 1.544 mg/day and 1.531 mg/day and 0.6428 mg/day and 5.6 mg/day | UAER (mg/day) at Week 2 ([2]; listed as ET1/AT1 Dual): 1.304 mg/day and 1.518 mg/day and 4.44 mg/day and 2.237 mg/day and 1.797 mg/day and 4.071 mg/day and 1.476 mg/day and 0.485 mg/day and 1.88 mg/day | UAER (mg/day) at Week 4 ([2]; listed as ET1/AT1 Dual): 1.009 mg/day and 1.391 mg/day and 0.6452 mg/day and 0.283 mg/day and 0.9648 mg/day and 0.8066 mg/day and 1.065 mg/day | UACR reduction vs vehicle ([2]; week one): 93.5% | UACR ([2]; week one): 2.44 ± 0.42 mg/mg

CCOc1nc2cccc(C(=O)O)c2n1Cc1ccc(-c2ccccc2-c2nnn[nH]2)cc1 [RAAS Blocker, Candesartan]
UACR (mg/mg) at Week 1 [3]: 20.0842 mg/mg and 22.2965 mg/mg and 25.3406 mg/mg and 40.1693 mg/mg and 41.555 mg/mg and 302.958 mg/mg and 55.6444 mg/mg and 187.49 mg/mg and 117.091 mg/mg and 7.322 mg/mg | UACR (mg/mg) at Week 2 [3]: 56.294 mg/mg and 76.9257 mg/mg and 96.611 mg/mg and 232.005 mg/mg and 248.91 mg/mg and 18.6549 mg/mg and 102.568 mg/mg and 35.7503 mg/mg | UAER (mg/day) at Week 1 [3]: 10.1862 mg/day and 10.9954 mg/day and 11.0332 mg/day and 14.9575 mg/day and 18.3446 mg/day and 113.025 mg/day and 29.5364 mg/day and 126.741 mg/day and 54.0627 mg/day and 5.677 mg/day | UAER (mg/day) at Week 2 [3]: 28.1393 mg/day and 36.5424 mg/day and 35.6435 mg/day and 176.989 mg/day and 173.035 mg/day and 14.0491 mg/day and 53.4766 mg/day and 17.1116 mg/day | UAER ([4]; Week 1, mean ± SEM): 8.27± 1.89, p=0.03 mg/day | UAER ([4]; Week 2, mean ± SEM): 3.62 ± 1.63, p=0.03 mg/day | UAER ([4]; Week 3, mean ± SEM): 3.32 ± 0.76, p<0.0001 mg/day | BUN [4, 6]: 247.0 ± 16.42 mg/dL | Serum Creatinine [4, 6]: 2.78 ± 0.27 µg/mL | UAER (mg/day) at Week 1 ([4]; individual mice): 2.15 mg/day and 4.699 mg/day and 15.5467 mg/day and 16.4212 mg/day and 15.0186 mg/day and 0.6806 mg/day and 9.638 mg/day and 3.148 mg/day and 4.462 mg/day and 10.9401 mg/day | UAER (mg/day) at Week 2 ([4]; individual mice): 0.7796 mg/day and 9.402 mg/day and 12.4793 mg/day and 1.127 mg/day and 0.5679 mg/day and 1.491 mg/day and 1.407 mg/day and 1.719 mg/day | UAER (mg/day) at Week 3 ([4]; individual mice): 5.801 mg/day and 4.3025 mg/day and 1.247 mg/day and 2.019 mg/day and 1.844 mg/day and 4.699 mg/day | UACR (mg/mg) at Week 1 [4, 7]: 5.748 mg/mg and 5.722 mg/mg and 28.9118 mg/mg and 21.9395 mg/mg and 21.4656 mg/mg and 1.415 mg/mg and 15.8208 mg/mg and 5.683 mg/mg and 7.266 mg/mg and 18.781 mg/mg | UACR (mg/mg) at Week 3 [4, 7]: 7.871 mg/mg and 8.029 mg/mg and 3.677 mg/mg and 3.863 mg/mg and 2.8993 mg/mg and 7.734 mg/mg | Serum Cystatin C ([4]; individual mice): 0.9323 µg/mL and 2.095 µg/mL and 2.201 µg/mL and 1.815 µg/mL and 2.053 µg/mL and 1.1273 µg/mL and 1.429 µg/mL and 1.517 µg/mL and 1.562 µg/mL and 2.118 µg/mL | BUN [4, 7]: 245 mg/dL and 215 mg/dL and 265 mg/dL and 205 mg/dL and 330 mg/dL and 255 mg/dL and 170 mg/dL and 210 mg/dL | Serum Creatinine [4, 7]: 2.46 µg/mL and 1.88 µg/mL and 2.93 µg/mL and 2.22 µg/mL and 2.77 µg/mL and 2.85 µg/mL and 2.01 µg/mL and 5.03 µg/mL and 2.87 µg/mL | Serum Cystatin C ([4]; mean ± SEM): 1.68 ± 0.14 µg/mL | UACR ([4]; week 1, mean ± SEM): 13.28 ± 2.928 mg/mg | UACR ([4]; week 3, mean ± SEM): 5.679 ± 0.99 mg/mg | UAER ([5]; Week 1): 39.46 ± 14.14, p=0.16 mg/day | UAER ([5]; Week 2): 66.87 ± 23.99, p=0.52 mg/day | BUN [5, 8]: 100 mg/dL and 80 mg/dL and 65 mg/dL and 70 mg/dL and 85 mg/dL and 125 mg/dL and 75 mg/dL | Serum Creatinine [5, 8]: 0.927 µg/mL and 1.08 µg/mL and 1.05 µg/mL and 1.06 µg/mL and 0.956 µg/mL and 1.21 µg/mL and 0.91 µg/mL and 1.09 µg/mL and 1.14 µg/mL and 1.35 µg/mL | UAER ([2]; Week 1): 9.38 ± 7.70, p=0.27 mg/day | UAER ([2]; Week 2): 7.72 ± 6.37, p=0.06 mg/day | UAER ([2]; Week 4): 1.74 ± 2.49, p=0.02 mg/day | UACR (mg/mg) at Week 1 [2]: 0.2531 mg/mg and 1.465 mg/mg and 2.285 mg/mg and 73.9074 mg/mg and 1.319 mg/mg and 7.089 mg/mg and 0.4551 mg/mg and 1.07 mg/mg | UACR (mg/mg) at Week 4 [2]: 0.751 mg/mg and 2.804 mg/mg and 0.2303 mg/mg and 0.9337 mg/mg and 0.4088 mg/mg and 0.9456 mg/mg | UAER (mg/day) at Week 1 [2]: 0.1519 mg/day and 0.9615 mg/day and 2.137 mg/day and 63.0549 mg/day and 1.2792 mg/day and 6.0897 mg/day and 0.4778 mg/day and 0.9119 mg/day | UAER (mg/day) at Week 2 [2]: 0.4333 mg/day and 5.515 mg/day and 1.464 mg/day and 44.8051 mg/day and 0.7469 mg/day and 7.145 mg/day and 0.2974 mg/day and 1.3574 mg/day | UAER (mg/day) at Week 4 [2]: 1.13 mg/day and 3.156 mg/day and 0.298 mg/day and 1.221 mg/day and 0.2117 mg/day and 1.028 mg/day | UACR ([2]; week one): 10.98 ± 9.02 mg/mg
